Values after ≈ are worked out from the molar mass of the structure shown.
Columns and labels:
[1] = system: Human alphaherpesvirus 3; assay: Inhibitory concentration against Varicella zoster virus (VZV); format: functional, organism-based
[2] = system: Human betaherpesvirus 5; assay: Inhibitory concentration against human cytomegalovirus (CMV) in cultured human foreskin fibroblast (HFF) cells; format: functional, organism-based; conditions: Human betaherpesvirus 5, HFF
[3] = system: Human alphaherpesvirus 2; assay: Inhibitory concentration against Herpes simplex virus (HSV); format: functional, organism-based
[4] = MTS cellular toxicity was determined; format: functional

| IC50 [1] [µg/mL] | IC50 [3] [µg/mL] | SMILES | IC50 [2] [µg/mL] | Activity [4] [µg/mL] |
| --- | --- | --- | --- | --- |
| > 10 | > 10 | O=C(Nc1ccc(/N=C(\S)Nc2ccc(C(F)(F)F)c(Cl)c2)cc1)c1cscn1 | 0.006 (≈ 0.0131 µM) | – |
| 7 (≈ 14.8 µM) | > 10 | O=C(Nc1ccc(/N=C(\S)Nc2cc(C(F)(F)F)cc(C(F)(F)F)c2)cc1)c1ccco1 | 0.04 (≈ 0.0845 µM) | – |
| > 10 | > 10 | O=C(Nc1ccc(/N=C(\S)Nc2ccc(F)c(Cl)c2)cc1)c1ccco1 | 0.06 (≈ 0.154 µM) | – |
| > 10 | 3 (≈ 7.9 µM) | COc1cc(OC)c(N/C(S)=N/c2ccc(NC(C)=O)cc2)cc1Cl | 45 (≈ 118 µM) | >10 |
| > 10 | > 10 | O=C(Nc1ccc(/N=C(\S)Nc2ccc(C(F)(F)F)c(Cl)c2)cc1)c1ccccn1 | > 10 | – |
| 4 (≈ 8.13 µM) | > 10 | COc1cc(OC)c(N/C(S)=N/c2cc(OC)c(NC(=O)c3ccco3)cc2OC)cc1Cl | > 10 | – |
| > 10 | 2.5 (≈ 5 µM) | COc1cc(OC)c(N/C(S)=N/c2ccc(NC(=O)c3ccco3)cc2C(F)(F)F)cc1Cl | 2 (≈ 4 µM) | >10 |
| > 10 | > 10 | O=C(Nc1ccc(NC(=S)Nc2ccccc2)cc1)c1ccco1 | 0.3 (≈ 0.889 µM) | – |
| > 10 | > 10 | COc1cc(OC)c(N/C(S)=N/c2ccc(NC(=O)c3ccco3)cc2C#N)cc1Cl | > 10 | >10 |
| > 10 | > 10 | O=C(Nc1ccc(/N=C(\S)Nc2ccc(C(F)(F)F)c(Cl)c2)cc1)c1cocn1 | 0.02 (≈ 0.0454 µM) | – |
| > 10 | > 10 | COc1cc(OC)c(N/C(S)=N/c2ccc(NC(=O)c3ccco3)cc2C)cc1Cl | 0.6 (≈ 1.35 µM) | – |
| > 10 | 8 (≈ 17.3 µM) | COc1cc(OC)c(N/C(S)=N/c2ccc(NC(=O)c3ccco3)c(OC)c2)cc1Cl | > 10 | – |
| > 10 | > 10 | COc1cc(OC)c(N/C(S)=N/c2ccc(NC(=O)c3ccco3)cc2)cc1Cl | 0.2 (≈ 0.463 µM) | >10 |
| > 10 | > 10 | Cc1cccc(N/C(S)=N/c2ccc(NC(=O)c3ccco3)cc2)c1 | 0.06 (≈ 0.171 µM) | – |
| > 10 | > 10 | O=C(Nc1ccc(/N=C(\S)Nc2cc(C(F)(F)F)cc(C(F)(F)F)c2)cc1)c1cocn1 | 0.03 (≈ 0.0632 µM) | – |
| > 10 | > 10 | O=C(Nc1ccc(/N=C(\S)Nc2cc(C(F)(F)F)cc(C(F)(F)F)c2)cc1)c1cscn1 | 0.008 (≈ 0.0163 µM) | – |
| > 10 | > 10 | O=C(Nc1ccc(/N=C(\S)Nc2cccc(C(F)(F)F)c2)cc1)c1ccco1 | 0.06 (≈ 0.148 µM) | – |
| > 10 | 0.3 (≈ 0.679 µM) | COc1cc(OC)c(N/C(S)=N/c2ccc(NC(=O)c3ccccc3)cc2)cc1Cl | 4 (≈ 9.05 µM) | >10 |
| > 10 | > 10 | Cc1ccc(N/C(S)=N/c2ccc(NC(=O)c3ccco3)cc2)cc1Cl | 0.09 (≈ 0.233 µM) | – |
| > 10 | > 10 | COc1cc(OC)c(N/C(S)=N/c2ccc(NC(=O)c3ccco3)c(C)c2)cc1Cl | > 10 | >10 |
| > 10 | 3 (≈ 7.62 µM) | CCC(=O)Nc1ccc(N/C(S)=N/c2cc(Cl)c(OC)cc2OC)cc1 | – | >10 |
| > 10 | > 10 | O=C(Nc1ccc(/N=C(\S)Nc2cc(C(F)(F)F)cc(C(F)(F)F)c2)cc1)c1csnn1 | 0.02 (≈ 0.0407 µM) | – |
| > 10 | > 10 | O=C(Nc1ccc(/N=C(\S)Nc2ccc(Cl)c(C(F)(F)F)c2)cc1)c1ccco1 | 0.03 (≈ 0.0682 µM) | – |
